# Assay results reported in US6399643B1, “Spiroimidazolidine derivatives, their preparation, their use and pharmaceutical preparations formed therefrom” (Aventis Pharma Deutschland GmbH, priority 1999, dated 2002).
# pIC50: −log10 of the molar value.
# Target: T1, interaction between VCAM-1 and VLA-4 (Homo sapiens, UniProt P05556+P13612)
# T1 construct: supplied in their natural form as surface molecules on human U937 cells; host or cells: human U937 cells (VLA-4, endogenous); the partner hVCAM-1(1-3)-IgG was made in house in transfected COS cells (ATCC CRL1651) and used as culture supernatant
# Test: U937/VCAM-1 cell adhesion test (adhesion of U937 cells to hVCAM-1(1-3)-IgG)
# Format: cell-based
# Details: inhibition of adhesion of human U937 cells (ATCC CRL 1593) to hVCAM-1(1-3)-IgG
# Description: A) U937/VCAM-1 Cell Adhesion Test
# The test method used for the activity of the compounds of the formula I on the interaction between VCAM-1 and VLA-4 is the assay described below, which is specific for this interaction. The cellular binding components, that is the VLA-4 integrins, are supplied in their natural form as surface molecules on human U937 cells (ATCC CRL 1593), which belong to the leukocytes group. The specific binding components used are genetically engineered recombinant soluble fusion proteins, consisting of the extracytoplasmic domain of human VCAM-1 and the constant region of a human immunoglobulin of the subclass IgG1.
# Assay for the Measurement of the Adhesion of U937 Cells (ATCC CRL 1593) to hVCAM-1 (1-3)-IgG
# 1. Preparation of Human VCAM-1(1-3)-IgG and Human CD4-IgG
# A genetic construct for the expression of the extracellular domain of human VCAM-1, combined with the genetic sequence of the heavy chain of human immunoglobulin IgG1 (hinge, CH2 and CH3 regions) (from Brian Seed, Massachusetts General Hospital, Boston, USA; cf. Damle and Aruffo, Proc. Natl. Acad. Sci. USA 1991, 88, 6403), was employed. The soluble fusion protein hVCAM-1(1-3)-IgG contained the three aminoterminal extracellular immunoglobulin-like domains of human VCAM-1 (Damle and Aruffo, Proc. Natl. Acad. Sci. USA 1991, 88, 6403). CD4-IgG (Zettlmeissl et al., DNA and Cell Biology 1990, 9, 347) served as a fusion protein for negative controls. The recombinant proteins were expressed as soluble proteins after DEAE/dextran-mediated DNA transfection in COS cells (ATCC CRL1651) according to standard procedures (Ausubel et al., Current protocols in molecular biology, John Wiley & Sons, Inc., 1994).
# 2. Assay for the Measurement of the Adhesion of U937 Cells to hVCAM-1(1-3)-IgG
# 2.1 96-well microtiter test plates (Nunc Maxisorb) were incubated at room temperature for 1 hour with 100 μl/well of a goat-anti-human IgG antibody solution (10 μg/ml in 50 mM tris, pH 9.5). After removal of the antibody solution, washing was carried out once with PBS.
# 2.2 150 μl/well of a blocking buffer (1% BSA in PBS) were incubated on the plates at room temperature for 0.5 hour. After removal of the blocking buffer, washing was carried out once with PBS.
# 2.3 100 μl per well of a cell culture supernatant of transfected COS cells were incubated on the plates at room temperature for 1.5 hours. The COS cells were transfected with a plasmid which codes for the three N-terminal immunoglobulin-like domains of VCAM-1, coupled to the Fc portion of human IgG1 (hVCAM-1 (1-3)-IgG). The content of hVCAM-1(1-3)-IgG was about 0.5-1 μg/ml. After removing the culture supernatant, washing was carried out once with PBS.
# 2.4 The plates were incubated at room temperature for 20 minutes with 100 μl/well of Fc receptor blocking buffer (1 mg/ml of γ-globulin, 100 mM NaCl, 100 μM MgCl2, 100 μM MnCl2, 100 μM CaCl2, 1 mg/ml of BSA in 50 mM HEPES, pH 7.5). After removal of the Fc receptor blocking buffer, washing was carried out once with PBS.
# 2.5 20 μl of binding buffer (100 μM NaCl, 100 μM MgCl2, 100 μM MnCl2, 100 μM CaCl2, 1 mg/ml of BSA in 50 mM HEPES, pH 7.5) were initially introduced, and the substances to be tested were added in 10 μl of binding buffer and incubated for 20 minutes. The controls used were antibodies against VCAM-1(BBT, No. BBA6) and against VLA-4(Immunotech, No. 0764).
# 2.6 U937 cells were incubated in Fc receptor blocking buffer for 20 minutes and then pipetted in at a concentration of 1×10^6/ml and in an amount of 100 μl per well ([…]).
# 2.7 The plates were slowly immersed at an angle of 45° in stop buffer (100 mM NaCl, 100 μM MgCl2, 100 μM MnCl2, 100 μM CaCl2 in 25 mM Tris, pH 7.5) and shaken off. The process was repeated.
# 2.8 50 μl/well of a dye solution ([…] of Hoechst Dye 33258, 4% formaldehyde, 0.5% Triton X-100 in PBS) were then incubated on the plates for 15 minutes. […]
# T1 sequence (P13612 34-1032): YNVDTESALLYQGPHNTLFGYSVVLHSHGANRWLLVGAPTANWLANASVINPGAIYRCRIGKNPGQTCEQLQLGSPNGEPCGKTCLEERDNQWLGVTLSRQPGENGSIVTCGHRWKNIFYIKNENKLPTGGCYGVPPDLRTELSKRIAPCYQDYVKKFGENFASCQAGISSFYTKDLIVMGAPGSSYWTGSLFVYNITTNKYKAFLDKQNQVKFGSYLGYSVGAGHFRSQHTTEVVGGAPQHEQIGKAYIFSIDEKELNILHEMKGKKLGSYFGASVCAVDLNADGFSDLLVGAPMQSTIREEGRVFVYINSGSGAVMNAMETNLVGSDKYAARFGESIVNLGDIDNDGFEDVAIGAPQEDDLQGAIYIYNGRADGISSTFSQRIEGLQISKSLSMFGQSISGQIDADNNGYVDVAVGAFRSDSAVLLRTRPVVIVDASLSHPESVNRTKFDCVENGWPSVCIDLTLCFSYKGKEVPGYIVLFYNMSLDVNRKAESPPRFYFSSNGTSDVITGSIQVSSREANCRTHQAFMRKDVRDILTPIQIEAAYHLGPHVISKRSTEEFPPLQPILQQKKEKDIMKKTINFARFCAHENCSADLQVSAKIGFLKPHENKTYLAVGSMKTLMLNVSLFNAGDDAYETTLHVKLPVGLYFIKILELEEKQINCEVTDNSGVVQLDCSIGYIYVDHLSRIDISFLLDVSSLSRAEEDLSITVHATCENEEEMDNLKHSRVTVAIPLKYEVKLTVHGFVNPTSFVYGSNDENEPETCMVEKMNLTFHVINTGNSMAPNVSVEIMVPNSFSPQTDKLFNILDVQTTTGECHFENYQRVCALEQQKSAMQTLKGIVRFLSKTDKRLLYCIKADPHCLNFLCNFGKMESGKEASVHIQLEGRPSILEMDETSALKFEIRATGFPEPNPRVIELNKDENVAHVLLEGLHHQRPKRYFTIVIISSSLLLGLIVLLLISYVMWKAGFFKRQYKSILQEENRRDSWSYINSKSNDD
# T1 sequence (P05556 21-798): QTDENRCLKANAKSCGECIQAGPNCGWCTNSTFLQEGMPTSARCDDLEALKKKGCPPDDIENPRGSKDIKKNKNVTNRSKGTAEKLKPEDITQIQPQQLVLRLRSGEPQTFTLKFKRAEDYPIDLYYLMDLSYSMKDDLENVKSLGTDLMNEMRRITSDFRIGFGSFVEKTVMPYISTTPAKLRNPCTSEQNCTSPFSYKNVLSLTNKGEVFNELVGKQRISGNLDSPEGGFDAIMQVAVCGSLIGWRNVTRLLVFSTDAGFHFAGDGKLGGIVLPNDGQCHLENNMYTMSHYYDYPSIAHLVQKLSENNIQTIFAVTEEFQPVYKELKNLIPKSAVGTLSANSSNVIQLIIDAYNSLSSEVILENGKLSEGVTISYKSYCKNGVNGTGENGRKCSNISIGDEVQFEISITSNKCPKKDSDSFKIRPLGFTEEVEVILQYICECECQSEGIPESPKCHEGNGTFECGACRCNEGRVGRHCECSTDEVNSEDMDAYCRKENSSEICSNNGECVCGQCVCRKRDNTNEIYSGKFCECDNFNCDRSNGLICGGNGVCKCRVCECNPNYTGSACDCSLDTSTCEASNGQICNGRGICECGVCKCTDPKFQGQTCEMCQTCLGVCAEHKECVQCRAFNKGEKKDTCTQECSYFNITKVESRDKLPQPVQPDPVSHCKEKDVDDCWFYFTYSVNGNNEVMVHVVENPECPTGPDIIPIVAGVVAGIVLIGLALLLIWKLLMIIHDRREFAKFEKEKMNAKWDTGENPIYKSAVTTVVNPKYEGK
smiles,measurement,value
"COc1ccc([C@H](CC(=O)O)NC(=O)[C@H](CC2CC2)N2C(=O)N(Cc3ccc(NC(=O)Nc4ccccc4C)cc3)C3(CCCCC3)C2=O)c(OC)c1 [Example 40, (S)-3-((S)-2-(4,4-Pentamethylene-3-(4-(3-(2-methylphenyl)ureido)benzyl)-2,5-dioxoimidazolidin-1-yl)-2-cyclopropylmethylacetylamino)-3-(2,4-dimethoxyphenyl)propionic acid]",pIC50,8.68
